The record followed here is ChEMBL document CHEMBL5338723, “Emerging Target-Directed Approaches for the Treatment and Diagnosis of Microbial Infections” (J Med Chem, 2023).

As usually defined, the MIC is the lowest concentration found to suppress growth.

Assay type in all cases: functional
One experiment has as its system Salmonella typhimurium. In words: Antimicrobial activity against Salmonella enterica subsp. enterica serovar Typhimurium assessed as increase in microbial growth inhibition.
A further experiment deals with Salmonella enteritidis. In words: Antimicrobial activity against Salmonella enterica subsp. enterica serovar Enteritidis assessed as increase in microbial growth inhibition.
The subject of the next experiment is Acinetobacter baumannii. In words: Antimicrobial activity against Acinetobacter baumannii ATCC 17978 assessed as microbial growth inhibition under iron-deficient condition.

Molecules are shown by their SMILES. ≈ marks a conversion by molar mass, not a printed value.

In the case of `CC1=C(C(=O)O)N2C(=O)[C@@H](NC(=O)[C@H](NC(=O)CCCc3cn(CCOCCOCCOCCNC(=O)c4cc(O)c(O)c(C(=O)N[C@H]5COC(=O)[C@@H](NC(=O)c6cc([C@@H]7O[C@H](CO)[C@@H](O)[C@H](O)[C@H]7O)cc(O)c6O)COC(=O)[C@@H](NC(=O)c6cc([C@@H]7O[C@H](CO)[C@@H](O)[C@H](O)[C@H]7O)cc(O)c6O)COC5=O)c4)nn3)c3ccccc3)[C@H]2SC1`, the minimal inhibitory concentration (MIC) in the experiment with Salmonella typhimurium and in the experiment on Salmonella enteritidis was 0.01 µM each time.

For the compound `CC1(C)S[C@@H]2[C@H](NC(=O)[C@H](NC(=O)CCCc3cn(CCOCCOCCOCCNC(=O)c4cc(O)c(O)c(C(=O)N[C@H]5COC(=O)[C@@H](NC(=O)c6cccc(O)c6O)COC(=O)[C@@H](NC(=O)c6cccc(O)c6O)COC5=O)c4)nn3)c3ccccc3)C(=O)N2[C@H]1C(=O)O`, the minimum inhibitory concentration (MIC) with Salmonella typhimurium and in the experiment with Salmonella enteritidis was 0.01 µM in each case. As for `C[C@@H](O)[C@H]1C(=O)N2C(C(=O)O)=C(S[C@H]3C[C@@H](C(=O)N(C)C)N(C(=O)CCCc4cn(CCOCCOCCOCCNC(=O)c5cc(O)c(O)c(C(=O)N[C@H]6COC(=O)[C@@H](NC(=O)c7cc([C@@H]8O[C@H](CO)[C@@H](O)[C@H](O)[C@H]8O)cc(O)c7O)COC(=O)[C@@H](NC(=O)c7cc([C@@H]8O[C@H](CO)[C@@H](O)[C@H](O)[C@H]8O)cc(O)c7O)COC6=O)c5)nn4)C3)[C@H](C)[C@H]12`, the MIC with Salmonella typhimurium and in the experiment on Salmonella enteritidis was 0.01 µM each time.

With `CC(=O)N(O)CCCCNC(=O)[C@H](COC(=O)c1cccc(O)c1O)NC(=O)[C@H]1N=C(c2cc(CCCCC(=O)N[C@@H](C(=O)N[C@@H]3C(=O)N4C(C(=O)O)=C(Cl)CS[C@H]34)c3ccccc3)cc(O)c2O)O[C@@H]1C`, the minimal inhibitory concentration (MIC) in the experiment on Acinetobacter baumannii came to 0.5 µg/mL (≈ 0.481 µM). Take `C[C@H]1OC(c2cccc(O)c2O)=N[C@@H]1C(=O)N[C@@H](COC(=O)c1cccc(O)c1O)C(=O)NCCCCN(O)C(=O)N[C@@H](C(=O)N[C@@H]1C(=O)N2C(C(=O)O)=C(Cl)CS[C@H]12)c1ccccc1`: the MIC with Acinetobacter baumannii was determined as 0.5 µg/mL (≈ 0.532 µM). Same read-out and setting: the result for `N[C@@H](C(=O)N[C@@H]1C(=O)N2C(C(=O)O)=C(Cl)CS[C@H]12)c1ccccc1` [CEFACLOR ANHYDROUS] reads 64 µg/mL (≈ 174 µM).

Regarding `CC1=C(C(=O)O)N2C(=O)[C@@H](NC(=O)[C@H](NC(=O)CCCc3cn(CCOCCOCCOCCNC(=O)c4cc(O)c(O)c(C(=O)N[C@H]5COC(=O)[C@@H](NC(=O)c6cccc(O)c6O)COC(=O)[C@@H](NC(=O)c6cccc(O)c6O)COC5=O)c4)nn3)c3ccccc3)[C@H]2SC1`, the minimum inhibitory concentration (MIC) in the experiment on Salmonella typhimurium and in the experiment on Salmonella enteritidis was 0.01 µM throughout.

As to `CC1(C)S[C@@H]2[C@H](NC(=O)[C@H](NC(=O)CCCc3cn(CCOCCOCCOCCNC(=O)c4cc(O)c(O)c(C(=O)N[C@H]5COC(=O)[C@@H](NC(=O)c6cc([C@@H]7O[C@H](CO)[C@@H](O)[C@H](O)[C@H]7O)cc(O)c6O)COC(=O)[C@@H](NC(=O)c6cc([C@@H]7O[C@H](CO)[C@@H](O)[C@H](O)[C@H]7O)cc(O)c6O)COC5=O)c4)nn3)c3ccccc3)C(=O)N2[C@H]1C(=O)O`, the MIC in the experiment on Salmonella typhimurium and in the experiment with Salmonella enteritidis was 0.01 µM in each case.

Take `C[C@H]1OC(c2cccc(O)c2O)=N[C@@H]1C(=O)N[C@@H](COC(=O)c1cc(N[C@@H](C(=O)N[C@@H]2C(=O)N3C(C(=O)O)=C(Cl)CS[C@H]23)c2ccccc2)cc(O)c1O)C(=O)NCCCCN(O)C=O`: the MIC in the experiment on Acinetobacter baumannii stood at 0.5 µg/mL (≈ 0.532 µM).
